In patent US20130065936A1, “MODULATION OF BIOACTIVE EPOXY-FATTY ACID LEVELS BY PHOSPHODIESTERASE INHIBITORS” (THE REGENTS OF THE UNIVERSITY OF CALIFORNIA, priority 2010, published 2013):
Read-outs that look alike come from different tables or passages of the source.

What was measured:
recombinant mouse sEH = target: T1, recombinant mouse sEH (Mus musculus, UniProt P34914); test: Potency on recombinant mouse sEH, fluorescent substrate; assay type: biochemical
T1 construct: made in house
T1 sequence (P34914 1-554): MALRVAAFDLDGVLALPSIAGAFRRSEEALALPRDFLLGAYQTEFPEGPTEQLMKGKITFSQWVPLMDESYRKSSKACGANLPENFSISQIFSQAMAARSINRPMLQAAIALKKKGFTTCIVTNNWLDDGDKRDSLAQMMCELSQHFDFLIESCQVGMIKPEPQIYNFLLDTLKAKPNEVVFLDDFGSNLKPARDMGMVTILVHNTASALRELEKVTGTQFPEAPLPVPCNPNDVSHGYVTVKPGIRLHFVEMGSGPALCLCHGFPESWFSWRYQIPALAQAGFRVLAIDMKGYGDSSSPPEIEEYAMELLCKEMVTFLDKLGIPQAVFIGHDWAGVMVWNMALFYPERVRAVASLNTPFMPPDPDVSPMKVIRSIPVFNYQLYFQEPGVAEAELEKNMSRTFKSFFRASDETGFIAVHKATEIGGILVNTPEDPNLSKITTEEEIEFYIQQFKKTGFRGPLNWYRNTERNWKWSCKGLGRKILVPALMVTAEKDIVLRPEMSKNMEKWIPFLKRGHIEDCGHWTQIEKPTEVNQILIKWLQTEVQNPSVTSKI

recombinant rat sEH = target: T2, recombinant rat sEH (Rattus norvegicus, UniProt P80299); test: Potency on recombinant rat sEH, fluorescent substrate; assay type: biochemical
T2 construct: made in house
T2 sequence (P80299 1-554): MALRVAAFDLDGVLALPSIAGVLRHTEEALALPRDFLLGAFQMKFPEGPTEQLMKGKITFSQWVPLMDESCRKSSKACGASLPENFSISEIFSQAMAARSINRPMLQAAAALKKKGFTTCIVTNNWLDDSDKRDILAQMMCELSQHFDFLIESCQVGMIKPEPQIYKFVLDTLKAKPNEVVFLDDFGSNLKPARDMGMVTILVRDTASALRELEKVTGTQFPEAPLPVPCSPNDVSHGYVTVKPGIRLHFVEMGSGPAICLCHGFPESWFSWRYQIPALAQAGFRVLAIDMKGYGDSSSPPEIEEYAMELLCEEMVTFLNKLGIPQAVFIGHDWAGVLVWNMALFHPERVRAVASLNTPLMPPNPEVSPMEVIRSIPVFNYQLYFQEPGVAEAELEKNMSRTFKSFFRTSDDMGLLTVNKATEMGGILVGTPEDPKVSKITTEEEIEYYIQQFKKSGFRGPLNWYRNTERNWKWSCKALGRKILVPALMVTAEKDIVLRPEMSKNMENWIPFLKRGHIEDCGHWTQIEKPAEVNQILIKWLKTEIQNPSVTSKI

[1] = system: endogenous oxylipin sEH substrates and products in rat plasma; test: Oxylipin analysis in rat plasma after sEHI / PDE inhibitor administration (LC-ESI-MS/MS); assay type: in vivo; settings: rat plasma 60 min after s.c., TPAU 10 mg/kg, rolipram 1 mg/kg;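 note: plasma from tail vein blood, oxylipins quantified by LC-ESI-MS/MS against deuterated internal standards following solid-phase extraction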
Sprague-Dawley rats [2] = test: Acute nociceptive responses in healthy rats, Hargreaves thermal withdrawal latency; assay type: in vivo, rat; settings: healthy rats
Sprague-Dawley rats [3] = test: Open field activity; assay type: in vivo, rat; settings: 1 h following administration
Method: For the measurement of open field activity animals were placed in an acrylic chamber (40×40×20 cm length×width×height) divided into 100 cm^2 (10×10 cm) sections. The number of crossings were recorded when both hind paws crossed into a neighboring cell.

With COc1ccc(C2CNC(=O)C2)cc1OC1CCCC1 (stereo not shown) [Rolipram] as the molecule, how does the IC50 (recombinant mouse sEH) read?
Its IC50 is over 10 µM.

What about the “inhibitory activity in the sEH assay” value (recombinant rat sEH; 10 and 100 μM, recombinant rat enzyme) of the same molecule?
Its value is “No inhibition was observed”.

What about the IC50 (recombinant rat sEH; read-out: IC50 on recombinant rat sEH) of the same molecule?
The IC50 was over 100 µM.

What about the IC50 (recombinant rat sEH; recombinant sEH, read-out: IC50 Rat) of the same molecule?
The IC50 was over 10 µM.

And the “8(9)-EpETE” value [1]?
The value was 1.25 nM.

And the “8(9)-EpETrE” value [1]?
The value was 9.63 nM.

What about the “8,9-DiHETE” value [1] of the same molecule?
Its value is 0.07 nM.

What about the “8,9-DiHETrE” value [1] of the same molecule?
Its value is 0.45 nM.

What about the “9(10)-EpOME” value [1] of the same molecule?
The value was 55.27 nM.

And the “9,10-DiHOME” value [1]?
The value was 24.32 nM.

What about the “10(11)-EpDPE” value [1] of the same molecule?
The value was 7.51 nM.

And the “10,11-DiHDPE” value [1]?
The value was 0.33 nM.

What about the “11(12)-EpETE” value [1] of the same molecule?
Its value is 0.93 nM.

What about the “11(12)-EpETrE” value [1] of the same molecule?
Its value is 13.15 nM.

What about the “11,12-DiHETE” value [1] of the same molecule?
Its value is 0.20 nM.

And the “11,12-DiHETrE” value [1]?
The value was 1.67 nM.

And the “12(13)-EpOME” value [1]?
Its value is 36.32 nM.

What about the “12,13-DiHOME” value [1] of the same molecule?
Its value is 42.01 nM.

And the “13(14)-EpDPE” value [1]?
Its value is 3.88 nM.

What about the “13,14-DiHDPE” value [1] of the same molecule?
The value was 0.37 nM.

What about the “14(15)-EpETE” value [1] of the same molecule?
The value was 0.84 nM.

And the “14(15)-EpETrE” value [1]?
The value was 8.52 nM.

And the “14,15-DiHETE” value [1]?
Its value is 0.28 nM.

And the “14,15-DiHETrE” value [1]?
The value was 1.74 nM.

And the “16(17)-EpDPE” value [1]?
Its value is 3.93 nM.

And the “16,17-DiHDPE” value [1]?
Its value is 0.72 nM.

What about the “17(18)-EpETE” value [1] of the same molecule?
The value was 1.76 nM.

And the “17,18-DiHETE” value [1]?
Its value is 0.77 nM.

And the “19(20)-EpDPE” value [1]?
Its value is 7.46 nM.

And the “19,20-DiHDPE” value [1]?
The value was 2.13 nM.

What about the “total Dihydroxyeicosanoid” value [1] of the same molecule?
Its value is 75.1 nM.

And the “total Epoxyeicosanoid” value [1]?
Its value is 150.4 nM.

And the “12(13)-EpOME” value ([1]; listed as rolipram)?
The value was “no increase”.

And the “12,13-DiHOME” value ([1]; listed as rolipram)?
Its value is “significant elevation”.

What about the thermal withdrawal latency (Sprague-Dawley rats [2]; 2 and 4 h after treatments) of the same molecule?
The thermal withdrawal latency was “devoid of effect on withdrawal latency”.

What about the “thermal withdrawal latency / pain related behavior, change from predrug baseline” value (Sprague-Dawley rats [2]; s.c., about 1 h after administration) of the same molecule?
Its value is “effective in elevating pain thresholds”.

And the “voluntary movement in an open-field chamber (motor depressant effect)” value (Sprague-Dawley rats [3])?
Its value is “significant and dose-dependent decrease in voluntary movement”.
